Results published in US20230255953A1, “USE OF ROLUPERIDONE IN PREVENTING RELAPSE IN SCHIZOPHRENIA PATIENTS” (Minerva Neurosciences, Inc., priority 2022, published 2023).

Tested on: patients with negative symptoms of schizophrenia
Experiment: Integrated analysis of Studies #1 and #2 (pooled ITT): PANSS-derived scores (NSFS, total, positive and negative subscales), DB, OL and whole study
Assay type: in vivo, human
Parameters: key to NSFS Score change from Baseline, Median: change from Baseline in PANSS NSFS points; higher score = more severe
Experimental: The primary integrated analysis of the efficacy of Roluperidone compared with placebo for the treatment of negative symptoms of schizophrenia is based on the change from Baseline in the PANSS Marder's negative symptoms factor score (in this document referred to as NSFS) to Week 12. Efficacy is also supported by the analysis of change from Baseline in the PSP Total score and the CGI-S to Week 12.
The PANSS was assessed at the time points described in Table 4.
The PANSS-derived endpoints used in these studies and the integrated analyses are described in Table 5A and a summary of the individual PANSS items used by physicians and clinicians to measure the severity of the symptoms in a schizophrenia patient is provided in Table 5B. The scale is divided into three parts, a positive scale, which provides a “PANSS positive subscore”, a negative scale, which provides a “PANSS negative subscore”, and general psychopathology scale. The sum of these three parts provides a PANSS total score, which ranges from 30 to 210 (where higher scores indicate more severe symptoms). (See Kay, S. R., et al. “The positive and negative syndrome scale (PANSS) for schizophrenia,” Schizophr Bulletin, 13(2), 261-276 (1987) and Gopal, S., et al. “Improvement of Negative Symptoms in Schizophrenia with Paliperidone Palmitate 1-Month and 3-Month Long-Acting Injectables: Results from a Phase 3 Non-Inferiority Study” Neuropsychiatric Disease and Treatment, 681-690, DOI: 10.2147/NDT.5226296, both of which are incorporated by reference.)
The Efficacy data from Study Nos. 1 and 2 were pooled. The majority of patients in the pooled ITT population completed the DB period (502 patients overall, 66.3%), with similar rates in each treatment group (placebo: 69.8%, 32 mg Roluperidone: 65.3%, and 64 mg Roluperidone: 63.8%) (Table 12). The majority (62.7%) of those who completed the DB period entered the OL period. The most common reason for discontinuation during the DB period among patients overall was withdrawal of consent (15.6%), followed by adverse events (7.3%) and lack of efficacy (5.4%) (Table 12). […] Approximately twice as many patients in the Roluperidone groups (32 mg: 8.5%; 64 mg: 9.1%) discontinued due to adverse events compared with patients in the placebo group (4.3%). More patients in the placebo group discontinued due to lack of efficacy (6.7%) than in the Roluperidone groups (32 mg: 4.4%; 64 mg: 5.1%). The low number of patients who discontinued due to lack of efficacy or withdrawal of consent probably reflects a low level of worsening of positive symptoms.
The integrated analysis supporting the efficacy of Roluperidone as a treatment for the negative symptoms of schizophrenia in adults is presented below.

[1] = Placebo in DB to Roluperidone 32 mg in OL, pooled ITT
[2] = Placebo in DB to Roluperidone 64 mg in OL, pooled ITT
[3] = Placebo in DB to Roluperidone in OL, Total, pooled ITT
[4] = Roluperidone Total, Week 2, DB, pooled ITT
[5] = Roluperidone Total, Week 2, pooled ITT

1H-Isoindol-1-one,2-[ [1-[2-(4-fluorophenyl)-2-oxoethyl]-4-piperidinyl]methyl]-2,3-dihydro-, hydrochloride, hydrate (1:1:2) [Roluperidone]
Patients with moderate improvement in NSFS (magnitude of change 6-8) (64 mg, Week 12, pooled): 19% | Patients with moderate or high improvement in NSFS, total (64 mg, Week 12, pooled): 32% | NSFS, LS mean decrease from Baseline compared with placebo (64 mg, Week 12, pooled ITT): −3.9 | PANSS Positive Subscale Score change from Baseline, LS mean (SE) (64 mg, Week 12, pooled ITT): −0.2 (0.21) | PANSS Positive Subscale Score change from Baseline, Mean (SD) (64 mg, Week 12, pooled ITT): −0.5 (2.88) | PANSS Positive Subscale Score change from Baseline, Median (64 mg, Week 12, pooled ITT): 0.0 | PANSS Positive Subscale Score, Difference (95% CI) in LS mean (vs placebo) (64 mg, Week 12, pooled ITT): −0.4 | PANSS negative subscale score, LS mean change from Baseline compared with placebo (64 mg, Week 12, pooled ITT): −1.3 | PANSS positive subscale score, LS mean change from Baseline compared with placebo (64 mg, Week 12, pooled ITT): −0.4 | PANSS total score, LS mean change from Baseline compared with placebo (64 mg, Week 12, pooled ITT): −2.8 | Patients with 20% Reduction in NSFS at Week 12, percent (64 mg, responder analysis): 39% | Patients with 20% Reduction in PANSS Total Score at Week 12, percent (64 mg, responder analysis): 19% | Number of Patients with 20% Reduction in PANSS Total Score at Week 12 (64 mg, responder analysis, n/N): 34/176 | Number of Patients with 20% reduction in NSFS at Week 12 (64 mg, responder analysis, n/N): 68/176 | NSFS Change from Active BL to Week 24, Mean (SD) [1]: −2.1 (2.56) | NSFS Change from Active BL to Week 24, Median [1]: −2.0 | NSFS Change from Active BL to Week 52, Mean (SD) [1]: −4.5 (3.60) | NSFS Change from Active BL to Week 52, Median [1]: −4.0 | NSFS Change from Active BL to Week 54, Mean (SD) [1]: −4.7 (3.60) | NSFS Change from Active BL to Week 54, Median [1]: −4.0 | NSFS Change from Open-label BL to Week 24, Mean (SD) [1]: −2.1 (2.56) | NSFS Change from Open-label BL to Week 24, Median [1]: −2.0 | NSFS Change from Open-label BL to Week 52, Mean (SD) [1]: −4.5 (3.60) | NSFS Change from Open-label BL to Week 52, Median [1]: −4.0 | NSFS Change from Open-label BL to Week 54, Mean (SD) [1]: −4.7 (3.60) | NSFS Change from Open-label BL to Week 54, Median [1]: −4.0 | NSFS Change from Study BL to Week 24, Mean (SD) [1]: −5.3 (3.72) | NSFS Change from Study BL to Week 24, Median [1]: −5.0 | NSFS Change from Study BL to Week 52, Mean (SD) [1]: −7.9 (3.69) | NSFS Change from Study BL to Week 52, Median [1]: −8.0 | NSFS Change from Study BL to Week 54, Mean (SD) [1]: −7.9 (4.29) | NSFS Change from Study BL to Week 54, Median [1]: −7.0 | NSFS Change from Active BL to Week 24, Mean (SD) [2]: −1.8 (3.55) | NSFS Change from Active BL to Week 24, Median [2]: −2.0 | NSFS Change from Active BL to Week 52, Mean (SD) [2]: −4.9 (4.72) | NSFS Change from Active BL to Week 52, Median [2]: −6.0 | NSFS Change from Active BL to Week 54, Mean (SD) [2]: −4.2 (4.78) | NSFS Change from Active BL to Week 54, Median [2]: −5.0 | NSFS Change from Open-label BL to Week 24, Mean (SD) [2]: −1.8 (3.55) | NSFS Change from Open-label BL to Week 24, Median [2]: −2.0 | NSFS Change from Open-label BL to Week 52, Mean (SD) [2]: −4.9 (4.72) | NSFS Change from Open-label BL to Week 52, Median [2]: −6.0 | NSFS Change from Open-label BL to Week 54, Mean (SD) [2]: −4.2 (4.78) | NSFS Change from Open-label BL to Week 54, Median [2]: −5.0 | NSFS Change from Study BL to Week 24, Mean (SD) [2]: −4.2 (3.38) | NSFS Change from Study BL to Week 24, Median [2]: −4.0 | NSFS Change from Study BL to Week 52, Mean (SD) [2]: −7.0 (3.76) | NSFS Change from Study BL to Week 52, Median [2]: −7.5 | NSFS Change from Study BL to Week 54, Mean (SD) [2]: −6.6 (4.15) | NSFS Change from Study BL to Week 54, Median [2]: −7.0 | NSFS Change from Active BL to Week 24, Mean (SD) [3]: −1.9 (3.06) | NSFS Change from Active BL to Week 24, Median [3]: −2.0 | NSFS Change from Active BL to Week 52, Mean (SD) [3]: −4.7 (4.17) | NSFS Change from Active BL to Week 52, Median [3]: −5.0 | NSFS Change from Active BL to Week 54, Mean (SD) [3]: −4.4 (4.18) | NSFS Change from Active BL to Week 54, Median [3]: −5.0 | NSFS Change from Open-label BL to Week 24, Mean (SD) [3]: −1.9 (3.06) | NSFS Change from Open-label BL to Week 24, Median [3]: −2.0 | NSFS Change from Open-label BL to Week 52, Mean (SD) [3]: −4.7 (4.17) | NSFS Change from Open-label BL to Week 52, Median [3]: −5.0 | NSFS Change from Open-label BL to Week 54, Mean (SD) [3]: −4.4 (4.18) | NSFS Change from Open-label BL to Week 54, Median [3]: −5.0 | NSFS Change from Study BL to Week 24, Mean (SD) [3]: −4.8 (3.60) | NSFS Change from Study BL to Week 24, Median [3]: −4.0 | NSFS Change from Study BL to Week 52, Mean (SD) [3]: −7.5 (3.72) | NSFS Change from Study BL to Week 52, Median [3]: −8.0 | NSFS Change from Study BL to Week 54, Mean (SD) [3]: −7.3 (4.25) | NSFS Change from Study BL to Week 54, Median [3]: −7.0 | NSFS Score change from Baseline, Mean (SD) [4]: −1.3 (2.25) | NSFS Score change from Baseline, Median [4]: −1.0 | PANSS Negative Subscale Score change from Baseline, Mean (SD) [4]: −1.3 (2.20) | PANSS Negative Subscale Score change from Baseline, Median [4]: −1.0 | PANSS Total Score change from Baseline, Mean (SD) [4]: −2.0 (6.89) | PANSS Total Score change from Baseline, Median [4]: −2.0 | PANSS Positive Subscale Score change from Baseline, Mean (SD) [5]: 0.1 (2.78) | PANSS Positive Subscale Score change from Baseline, Median [5]: 0.0 | NSFS Score change from Baseline, Mean (SD) (Roluperidone Total, Week 4, DB, pooled ITT): −2.4 (2.64)
